Source: paper PMC5947527 (Chemical Science, 2015)
Entries after “also recorded” stand apart in the source; their conditions may differ. Non-standard residues stand in square brackets, D forms with d. Residues, ends and D or L forms follow the SMILES beside them. *: point of attachment. NBD = O=[N+]([O-])c1ccc(*)c2nonc12; Nle = CCCC[C@H](N)C(=O)O; Ahx = NCCCCCC(=O)O

Assays:
[1] = test system: methicillin-sensitive Staphylococcus aureus (MSSA), Pseudomonas aeruginosa and Klebsiella pneumoniae; assay: Confocal bacterial labelling, UBI-2 vs UBI-3 on a panel of bacteria; format: cell-based; conditions: fluorescence normalised to UBI-2, mean ± SEM, n ≥ 3
Method: Fig. 3 UBI-3 retains specificity and sensitivity for bacterial labelling. […] Panels show bacteria labelled with either UBI-2 or UBI-3 with quantification of fluorescence (values normalised to UBI-2) (Bars represent mean, error bars represent standard error of mean, n ≥ 3, ns = not significant, scale bar = 10 μm). (B) Quantification from confocal images of UBI-3 (10 μM) imaging a panel of bacteria (statistical analyses shown compared to unlabelled bacteria, n ≥ 3 for each bacteria, *** = p < 0.001). […] [MRSA: methicillin-resistant Staphylococcus aureus, MSSA: methicillin-sensitive Staphylococcus aureus]. […]
(§1) Confocal Analysis and Fluorescence Quantification: 8-Well Lab-Tek II Confocal Chambers (VWR, PA, USA) were coated in fibronectin (for neutrophil experiments) or poly-d-lysine (for bacteria) at 37 °C for 20 minutes, then washed in PBS prior to bacterial innoculation. […] Exposure to 488 nm light was limited to 5% of the maximum laser power in order to minimize toxicity. ‘Green’ fluorescence (for FAM and NBD) was excited with a dedicated 488 nm line and emitted light detected with meta detector (500-530 nM).
(§2) Syto nuclear and dyes were excited with a dedicated 543 nm line, and emitted light detected with meta detector (570-610 nM). Fields of view were chosen based on the counterstain and at least three fields of view were recorded for each condition. […]

[2] = test system: P. aeruginosa; assay: Confocal labelling of bacteria in the presence of human ARDS BALF; format: cell-based; conditions: 10 μM, n = 3 PBS, n = 5 ARDS, p < 0.001
Excerpt: To determine the ability of UBI-3 to image bacteria in the continued presence of a complex inflammatory environment, bacteria were labelled with UBI-3 in the presence of broncho-alveolar lavage fluid (BALF) retrieved from ventilated ICU patients with Acute Respiratory Distress Syndrome (ARDS). ARDS BALF was utilised as ARDS is a severe life threatening pulmonary syndrome, characterized by a massive proteolytic and oxidative inflammatory environment within the distal alveolar region.[14] […] To design out susceptible amino acid cleavage points, a number of modifications were made (Table 1) and the functional consequences assessed. […]
as §1, §2

[3] = Chemical stability on storage in phosphate buffered saline at 37 °C (HPLC); format: physicochemical; conditions: 1 mg mL–1 in PBS, day 0 vs day 3, HPLC, detection at 380 nm
Method: This modification is particularly of relevance due to the expected in vivo inflammatory oxidative environment within an infected pneumonic lung due to infiltrating host inflammatory cells such as neutrophils,[13] and therefore all subsequent modifications incorporated Nle in place of Met.
HPLC chromatograms (gradient acetonitrile + 0.1% formic acid/water + 0.1% formic acid from 5/95 to 95/5 over 10 min, then isocratic for 4 min; detection at 380 nm). UBI-2 (1 mg mL^–1 in PBS, upper panels) and UBI-3 (1 mg mL^–1 in PBS, lower panels) at (A) day 0 and (B) day 3 after incubation at 37 °C.

CCCC[C@H](NC(=O)[C@H](CCCNC(=N)N)NC(=O)[C@H](CCCNC(=N)N)NC(=O)[C@H](CCCCN)NC(=O)[C@H](C)NC(=O)[C@H](CCCNC(=N)N)NC(=O)CNC(=O)[C@@H](NC(=O)CCCCCNc1ccc([N+](=O)[O-])c2nonc12)[C@@H](C)O)C(=O)N[C@@H](CCC(N)=O)C(=O)N[C@@H](Cc1ccc(O)cc1)C(=O)N[C@@H](CC(N)=O)C(=O)N[C@@H](CCCNC(=N)N)C(=O)N[C@@H](CCCNC(=N)N)C(N)=O [UBI-3] ({NBD-Ahx}-TGRAKRR[Nle]QYNRR-NH2)
bacterial labelling, Met vs Nle variant [1]: retained bacterial labelling; also recorded: same fluorescence intensity
fluorescent labelling intensity of bacteria in ARDS BALF compared to PBS [2]: significant reduction in the fluorescent labelling intensity; also recorded: significantly reduced intensity when compared to PBS
chemical stability in PBS at 37 °C [3]: prevented by substitution of the Met to Nle
